Converted amounts (≈) assume the structure as drawn. The source made the active and inactive calls. The calls are words filed in the database; no cut-off is given here.
system: Pseudomonas aeruginosa; test: Antimicrobial activity against Pseudomonas aeruginosa NCTC 10662 after 18 hrs by micro dilution method; assay type: functional; conditions: NCTC 10662, 18 h

Row | MIC [µg/mL] | Structure (SMILES)
1 | 4 (≈ 7.91 µM) | O=C(O)CC(O)(CC(=O)N1CCN(c2cc3c(cc2F)c(=O)c(C(=O)O)cn3C2CC2)CC1)C(=O)O (configuration not stated)

system: Escherichia coli; test: Ratio of compound MIC to ciprofloxacin MIC for Escherichia coli NCTC 10418 after 18 hrs by micro dilution method; assay type: functional; conditions: not given

Row | Structure (SMILES) | Ratio
2 | O=C(O)CC(O)(CC(=O)N1CCN(c2cc3c(cc2F)c(=O)c(C(=O)O)cn3C2CC2)CC1)C(=O)O (configuration not stated) | 2.8

system: Burkholderia cepacia; test: Antimicrobial activity against Burkholderia cepacia BIG 117 after 18 hrs by micro dilution method; assay type: functional; conditions: BIG 117, 18 h

Row | MIC [µg/mL] | Structure (SMILES)
3 | 16 (≈ 31.7 µM) | O=C(O)CC(O)(CC(=O)N1CCN(c2cc3c(cc2F)c(=O)c(C(=O)O)cn3C2CC2)CC1)C(=O)O (configuration not stated)

system: Stenotrophomonas maltophilia; test: Antimicrobial activity against Stenotrophomonas maltophilia N1127 after 18 hrs by micro dilution method; assay type: functional; conditions: N1127, 18 h

Row | MIC [µg/mL] | Structure (SMILES)
4 | 32 (≈ 63.3 µM) | O=C(O)CC(O)(CC(=O)N1CCN(c2cc3c(cc2F)c(=O)c(C(=O)O)cn3C2CC2)CC1)C(=O)O (configuration not stated)

system: Staphylococcus epidermidis; test: Ratio of compound MIC to ciprofloxacin MIC for Staphylococcus epidermidis NCTC 2749 after 18 hrs by micro dilution method; assay type: functional; conditions: not given

Row | Structure (SMILES) | Ratio
5 | O=C(O)CC(O)(CC(=O)N1CCN(c2cc3c(cc2F)c(=O)c(C(=O)O)cn3C2CC2)CC1)C(=O)O (configuration not stated) | 20.9

system: Staphylococcus aureus; test: Ratio of compound MIC to ciprofloxacin MIC for Staphylococcus aureus (Oxford) NCTC 6571 after 18 hrs by micro dilution method; assay type: functional; conditions: not given

Row | Structure (SMILES) | Ratio
6 | O=C(O)CC(O)(CC(=O)N1CCN(c2cc3c(cc2F)c(=O)c(C(=O)O)cn3C2CC2)CC1)C(=O)O (configuration not stated) | 41.8

system: Pseudomonas aeruginosa; test: Ratio of compound MIC to ciprofloxacin MIC for Pseudomonas aeruginosa NCTC 10662 after 18 hrs by micro dilution method; assay type: functional; conditions: not given

Row | Structure (SMILES) | Ratio
7 | O=C(O)CC(O)(CC(=O)N1CCN(c2cc3c(cc2F)c(=O)c(C(=O)O)cn3C2CC2)CC1)C(=O)O (configuration not stated) | 10.5

system: Stenotrophomonas maltophilia; test: Antimicrobial activity against Stenotrophomonas maltophilia N1119 after 18 hrs by micro dilution method; assay type: functional; conditions: N1119, 18 h

Row | MIC [µg/mL] | Structure (SMILES)
8 | 32 (≈ 63.3 µM) | O=C(O)CC(O)(CC(=O)N1CCN(c2cc3c(cc2F)c(=O)c(C(=O)O)cn3C2CC2)CC1)C(=O)O (configuration not stated)

system: Pseudomonas aeruginosa; test: Ratio of compound MIC to ciprofloxacin MIC for Pseudomonas aeruginosa BIG 63 after 18 hrs by micro dilution method; assay type: functional; conditions: not given

Row | Structure (SMILES) | Ratio
9 | O=C(O)CC(O)(CC(=O)N1CCN(c2cc3c(cc2F)c(=O)c(C(=O)O)cn3C2CC2)CC1)C(=O)O (configuration not stated) | 10.5

system: Staphylococcus epidermidis; test: Antimicrobial activity against Staphylococcus epidermidis NCTC 2749 after 18 hrs by micro dilution method; assay type: functional; conditions: NCTC 2749, 18 h

Row | MIC [µg/mL] | Structure (SMILES)
10 | 8 (≈ 15.8 µM) | O=C(O)CC(O)(CC(=O)N1CCN(c2cc3c(cc2F)c(=O)c(C(=O)O)cn3C2CC2)CC1)C(=O)O (configuration not stated)

system: Pseudomonas aeruginosa; test: Antimicrobial activity against Pseudomonas aeruginosa environmental isolate BIG 39 after 18 hrs by micro dilution method; assay type: functional; conditions: BIG 39, 18 h

Row | MIC [µg/mL] | Structure (SMILES)
11 | 4 (≈ 7.91 µM) | O=C(O)CC(O)(CC(=O)N1CCN(c2cc3c(cc2F)c(=O)c(C(=O)O)cn3C2CC2)CC1)C(=O)O (configuration not stated)

system: Serratia marcescens; test: Antimicrobial activity against Serratia marcescens BIG 11 NCTC 1377 after 18 hrs by micro dilution method; assay type: functional; conditions: BIG 11 NCTC 1377, 18 h

Row | MIC [µg/mL] | Structure (SMILES)
12 | 1 (≈ 1.98 µM) | O=C(O)CC(O)(CC(=O)N1CCN(c2cc3c(cc2F)c(=O)c(C(=O)O)cn3C2CC2)CC1)C(=O)O (configuration not stated)

system: Escherichia coli; test: Antimicrobial activity against Escherichia coli NCTC 10418 after 18 hrs by micro dilution method; assay type: functional; conditions: NCTC 10418, 18 h

Row | MIC [µg/mL] | Structure (SMILES)
13 | 0.25 (≈ 0.495 µM) | O=C(O)CC(O)(CC(=O)N1CCN(c2cc3c(cc2F)c(=O)c(C(=O)O)cn3C2CC2)CC1)C(=O)O (configuration not stated)

system: not listed separately; test: Inhibition of DNA gyrase (unknown origin) assessed as reduction in supercoiled form of DNA at 20 uM using ethidium bromide staining by gel electrophoresis; conditions: not given

Row | inhibition | Structure (SMILES)
14 | Active | O=C(O)CC(O)(CC(=O)N1CCN(c2cc3c(cc2F)c(=O)c(C(=O)O)cn3C2CC2)CC1)C(=O)O (configuration not stated)

system: Pseudomonas aeruginosa; test: Ratio of compound MIC to ciprofloxacin MIC for Pseudomonas aeruginosa environmental isolate after 18 hrs by micro dilution method; assay type: functional; conditions: not given

Row | Structure (SMILES) | Ratio
15 | O=C(O)CC(O)(CC(=O)N1CCN(c2cc3c(cc2F)c(=O)c(C(=O)O)cn3C2CC2)CC1)C(=O)O (configuration not stated) | 10.5

system: Staphylococcus haemolyticus; test: Antimicrobial activity against Staphylococcus haemolyticus NCTC 11042 after 18 hrs by micro dilution method; assay type: functional; conditions: NCTC 11042, 18 h

Row | Structure (SMILES) | MIC [µg/mL]
16 | O=C(O)CC(O)(CC(=O)N1CCN(c2cc3c(cc2F)c(=O)c(C(=O)O)cn3C2CC2)CC1)C(=O)O (configuration not stated) | 16 (≈ 31.7 µM)

system: Serratia marcescens; test: Ratio of compound MIC to ciprofloxacin MIC for Serratia marcescens BIG 11 NCTC 1377 after 18 hrs by micro dilution method; assay type: functional; conditions: not given

Row | Structure (SMILES) | Ratio
17 | O=C(O)CC(O)(CC(=O)N1CCN(c2cc3c(cc2F)c(=O)c(C(=O)O)cn3C2CC2)CC1)C(=O)O (configuration not stated) | 11

system: Burkholderia cepacia; test: Antimicrobial activity against Burkholderia cepacia BIG 118 after 18 hrs by micro dilution method; assay type: functional; conditions: BIG 118, 18 h

Row | MIC [µg/mL] | Structure (SMILES)
18 | 16 (≈ 31.7 µM) | O=C(O)CC(O)(CC(=O)N1CCN(c2cc3c(cc2F)c(=O)c(C(=O)O)cn3C2CC2)CC1)C(=O)O (configuration not stated)

system: Staphylococcus aureus; test: Antimicrobial activity against Staphylococcus aureus (Oxford) NCTC 6571 after 18 hrs by micro dilution method; assay type: functional; conditions: (Oxford) NCTC 6571, 18 h

Row | MIC [µg/mL] | Structure (SMILES)
19 | 16 (≈ 31.7 µM) | O=C(O)CC(O)(CC(=O)N1CCN(c2cc3c(cc2F)c(=O)c(C(=O)O)cn3C2CC2)CC1)C(=O)O (configuration not stated)

system: Burkholderia cepacia; test: Ratio of compound MIC to ciprofloxacin MIC for Burkholderia cepacia BIG 120 after 18 hrs by micro dilution method; assay type: functional; conditions: not given

Row | Structure (SMILES) | Ratio
20 | O=C(O)CC(O)(CC(=O)N1CCN(c2cc3c(cc2F)c(=O)c(C(=O)O)cn3C2CC2)CC1)C(=O)O (configuration not stated) | 5.2

system: Burkholderia cepacia; test: Antimicrobial activity against Burkholderia cepacia BIG 120 after 18 hrs by micro dilution method; assay type: functional; conditions: BIG 120, 18 h

Row | MIC [µg/mL] | Structure (SMILES)
21 | 16 (≈ 31.7 µM) | O=C(O)CC(O)(CC(=O)N1CCN(c2cc3c(cc2F)c(=O)c(C(=O)O)cn3C2CC2)CC1)C(=O)O (configuration not stated)

system: Stenotrophomonas maltophilia; test: Ratio of compound MIC to ciprofloxacin MIC for Stenotrophomonas maltophilia N1119 after 18 hrs by micro dilution method; assay type: functional; conditions: not given

Row | Structure (SMILES) | Ratio
22 | O=C(O)CC(O)(CC(=O)N1CCN(c2cc3c(cc2F)c(=O)c(C(=O)O)cn3C2CC2)CC1)C(=O)O (configuration not stated) | 20.1

Reference: ChEMBL document CHEMBL3351986, “Probing linker design in citric acid-ciprofloxacin conjugates” (2014)
